Results reported in ChEMBL document CHEMBL4342466, “Novel, Self-Assembling Dimeric Inhibitors of Human β Tryptase” (J Med Chem, 2020).
The source made the active and inactive calls. No cut-off for these calls is given here.

Legend:
[1] = Inhibition of human recombinant beta-tryptase pre-incubated for 3 hrs before N-tert-butoxycarbonyl-Gln-Ala-Arg-AMC substrate addition and measured every 30 secs for 15 mins by spectrometry
[2] = Stability in human liver microsomes assessed as parent compound remaining at 15 uM in presence of UDPGA incubated for 60 mins; assay type: ADME, Microsome; conditions: for Stability: microsomes, 1 h, 15 µM; for remaining at 1 h, 15 µM: liver microsomes, read-out: Stability
[3] = Stability in human liver microsomes assessed as parent compound remaining at 15 uM in absence of NADPH incubated for 60 mins; assay type: ADME, Microsome; conditions: for Stability: microsomes, 1 h, 15 µM; for remaining at 1 h, 15 µM: liver microsomes, read-out: Stability
[4] = Stability in human liver microsomes assessed as parent compound remaining at 15 uM in presence of NADPH incubated for 60 mins; assay type: ADME, Microsome; conditions: for Stability: microsomes, 1 h, 15 µM; for remaining at 1 h, 15 µM: liver microsomes, read-out: Stability
[5] = Plasma concentration in mouse xenografted with human HMC1 cells at 10 mg/kg, iv dosed at time 0 and again 24 hrs later and measured at 2 hrs after second dose by LC-MS/MS analysis; assay type: ADME, organism-based
[6] = Plasma concentration in mouse xenografted with human HMC1 cells at 10 mg/kg, iv dosed at time 0 and again 24 hrs later and measured at 8 hrs after second dose by LC-MS/MS analysis; assay type: ADME, organism-based
[7] = Drug concentration in tumor of mouse xenografted with human HMC1 cells at 10 mg/kg, iv dosed at time 0 and again 24 hrs later and measured at 8 hrs after second dose by LC-MS/MS analysis; assay type: ADME, organism-based, Neoplasm; conditions: read-out: Drug uptake
[8] = Drug concentration in tumor of mouse xenografted with human HMC1 cells at 10 mg/kg, iv dosed at time 0 and again 24 hrs later and measured at 2 hrs after second dose by LC-MS/MS analysis; assay type: ADME, organism-based, Neoplasm; conditions: read-out: Drug uptake
[9] = Drug concentration in tumor of mouse xenografted with human HMC1 cells at 10 mg/kg, iv dosed at time 0 and again 24 hrs later and measured at 0 hrs after second dose by LC-MS/MS analysis; assay type: ADME, organism-based, Neoplasm; conditions: read-out: Drug uptake
[10] = Drug concentration in tumor of mouse xenografted with human HMC1 cells at 10 mg/kg, iv dosed at time 0 and again 24 hrs later and measured at 24 hrs after second dose by LC-MS/MS analysis; assay type: ADME, organism-based, Neoplasm; conditions: read-out: Drug uptake
[11] = Plasma concentration in mouse xenografted with human HMC1 cells at 10 mg/kg, iv dosed at time 0 and again 24 hrs later and measured at 24 hrs after second dose by LC-MS/MS analysis; assay type: ADME, organism-based
[12] = Time for Clast in C57BL/6 mouse at 5 mg/kg, iv measured over 0.25 to 24 hrs by LC-MS/MS analysis; assay type: ADME, organism-based; conditions: in vivo
[13] = Time for Clast in C57BL/6 mouse at 50 mg/kg, po measured over 0.25 to 24 hrs by LC-MS/MS analysis; assay type: ADME, organism-based; conditions: in vivo
Tryptase beta-2 = molecular target: T1, Tryptase beta-2 (Mus musculus, UniProt P21845); assay: Inhibition of mouse MCP6 pre-incubated for 3 hrs before N-tert-butoxycarbonyl-Gln-Ala-Arg-AMC substrate addition and measured every 30 secs for 15 mins by spectrometry
T1 sequence (P21845 whole entry): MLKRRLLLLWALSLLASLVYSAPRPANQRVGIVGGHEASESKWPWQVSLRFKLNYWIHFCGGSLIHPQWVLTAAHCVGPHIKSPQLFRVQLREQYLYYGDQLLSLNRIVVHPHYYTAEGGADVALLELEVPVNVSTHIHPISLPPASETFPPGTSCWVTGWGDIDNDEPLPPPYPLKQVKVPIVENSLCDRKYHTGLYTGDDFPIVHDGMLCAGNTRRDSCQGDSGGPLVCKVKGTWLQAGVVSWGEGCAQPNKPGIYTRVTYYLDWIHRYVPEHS

[14] = Half life in C57BL/6 mouse at 5 mg/kg, iv measured over 0.25 to 24 hrs by LC-MS/MS analysis; assay type: ADME, organism-based; conditions: in vivo
[15] = Tmax in C57BL/6 mouse at 50 mg/kg, po measured over 0.25 to 24 hrs by LC-MS/MS analysis; assay type: ADME, organism-based; conditions: in vivo
[16] = Lipophilicity, logD of the compound at pH 7.4; assay type: physicochemical; conditions: buffer
[17] = Solubility of the compound; assay type: physicochemical
Mus musculus = assay: Inhibition of tryptase activity in tumors of mouse xenografted with human HMC1 cells at 10 mg/kg, iv dosed at time 0 and again 24 hrs later and measured at 24 to 48 hrs after second dose; assay type: functional, organism-based
HMC1 [18] = assay: Inhibition of beta-tryptase in human HMC1 cells assessed as effect on tryptase activity by measured cell lysis; assay type: cell-based
HMC1 [19] = assay: Inhibition of beta-tryptase in human HMC1 cells assessed as effect on A23187-induced degranulation; assay type: cell-based
Homo sapiens = species: Homo sapiens; assay: Inhibition of human recombinant beta-tryptase assessed as remaining enzyme activity at 10 uM pre-incubated for 3 hrs before N-tert-butoxycarbonyl-Gln-Ala-Arg-AMC substrate addition and measured after 8 hrs by spectrometry relative to control
[20] = Clearance in C57BL/6 mouse at 5 mg/kg, iv measured over 0.25 to 24 hrs by LC-MS/MS analysis; assay type: ADME, organism-based; conditions: in vivo

Row | SMILES | remaining at 1 h, 15 µM [2] | remaining at 1 h, 15 µM [4] | IC50 [1] | IC50 (Tryptase beta-2) | other results
1 | CONC(=O)c1ccc(C(=O)N2CCC(c3cccc(CN)c3)CC2)cc1O | – | – | 0.12 µM | – | Stability [2]: Stable; Stability [3]: Stable; Stability [4]: Stable
2 | CSc1sc(C(=O)N2CCC3(CC2)COc2ccc(CN)cc23)cc1-c1cccc2c1COB2O | – | – | 0.018 µM | – | Stability [2]: Stable; Stability [3]: Stable; Stability [4]: Stable
3 | NCc1ccc2c(c1)C1(CCN(C(=O)c3cc(O)c(O)c(Cl)c3)CC1)CO2.O=C(O)C(F)(F)F | – | – | – | – | concentration at 2 h [5]: 311 nM; concentration at 8 h [6]: 1.28 nM; concentration at 8 h [7]: 58.6 nM; concentration at 2 h [8]: 314 nM; concentration at 0 h [9]: 17.6 nM; concentration at 24 h [10]: 8.64 nM; concentration at 24 h [11]: 0.02 nM
4 | CONC(=O)c1ccc(C(=O)N2CCC3(CC2)COc2ccc(CN)cc23)cc1O | – | – | 0.0434 µM | – | Stability [2]: Stable; Stability [3]: Stable; Stability [4]: Stable
5 | CONC(=O)c1cc(C(=O)N2CCC(c3cccc(CN)c3)CC2)ccc1O | 68% | 84% | 3.31 µM | 0.455 µM | remaining at 1 h, 15 µM [3]: 81%
6 | NCc1ccc2c(c1)C1(CCN(C(=O)c3ccc(CO)c(O)c3)CC1)CO2 | – | – | 0.656 µM | 4.69 µM | Stability [2]: Stable; Stability [3]: Stable; Stability [4]: Stable
7 | NCc1cccc(C2CCN(C(=O)/C=C/c3ccc4c(c3)OB(c3ccc5cccc(C(=O)N6CCC(c7cccc(CN)c7)CC6)c5c3)O4)CC2)c1 | – | – | 0.411 µM | – | –
8 | NCc1ccc2c(c1)C1(CCN(C(=O)c3ccc(Cl)c(-c4cccc(B(O)O)c4)c3)CC1)CO2 | – | – | 1.1 µM | 0.599 µM | –
9 | NCc1ccc2c(c1)C1(CCN(C(=O)c3cccc(-c4cccc(B(O)O)c4)c3)CC1)CO2 [listing 2 of 2 here] | – | – | – | – | inhibition (HMC1 [18]): inactive; inhibition (Mus musculus): Active; inhibition (HMC1 [19]): Active; inhibition (Homo sapiens): inactive
10 | Cc1cc(C(=O)N2CCC(c3cccc(CN)c3)CC2)cc(-c2cccc(B(O)O)c2)c1C | – | – | 1.25 µM | – | –
11 | COc1cc(C(=O)N2CCC(c3cccc(CN)c3)CC2)cc(O)c1O | – | – | 0.925 µM | 7.43 µM | –
12 | Cc1cc(C(=O)N2CCC3(CC2)COc2ccc(CN)cc23)cc(-c2cccc(B(O)O)c2)c1C | – | – | 1.36 µM | – | –
13 | CSc1sc(C(=O)N2CCC(c3cccc(CN)c3)CC2)cc1-c1cccc2c1COB2O | – | – | 0.0142 µM | – | –
14 | NCc1ccc2c(c1)C1(CCN(C(=O)c3cc(O)c(O)c(Cl)c3)CC1)CO2 [listing 1 of 2 here] | – | – | – | – | inhibition (HMC1 [18]): inactive; inhibition (Mus musculus): Active; inhibition (HMC1 [19]): Active; inhibition (Homo sapiens): inactive
15 | NCc1cccc(C2CCN(C(=O)c3cccc(-c4cccc(B(O)O)c4)c3)CC2)c1 | 1% | 2% | 0.843 µM | 1.42 µM | clearance [20]: 52.5 mL/min/kg; half-life [14]: 216 min; remaining at 1 h, 15 µM [3]: 1%
16 | NCc1ccc2c(c1)C1(CCN(C(=O)c3cc(O)c(O)c(Cl)c3)CC1)CO2 [listing 2 of 2 here] | – | – | 0.238 µM | 11.7 µM | Time [12]: 8 h; Time [13]: 24 h; half-life [14]: > 360 min; Tmax [15]: 15 min; solubility [17]: Soluble

Second part, led by results:

Row | remaining at 1 h, 15 µM [2] | remaining at 1 h, 15 µM [4] | SMILES | IC50 [1] | IC50 (Tryptase beta-2) | other results
17 | 94% | 96% | NCc1ccc2c(c1)C1(CCN(C(=O)c3cccc(-c4cccc(B(O)O)c4)c3)CC1)CO2 [listing 1 of 2 here] | 1.22 µM | 1.14 µM | Time [12]: 24 h; Time [13]: 8 h; half-life [14]: > 360 min; Tmax [15]: 30 min; remaining at 1 h, 15 µM [3]: 85%; logD [16]: 1.22; solubility [17]: Soluble
18 | 72% | 74% | COc1cc(C(=O)N2CCC3(CC2)COc2ccc(CN)cc23)cc(O)c1O | 0.953 µM | 11.8 µM | Stability [3]: Stable
19 | 18% | 29% | NCc1cccc(C2CCN(C(=O)c3cc(O)c(O)c(Cl)c3)CC2)c1 | 0.339 µM | 17.5 µM | remaining at 1 h, 15 µM [3]: 28%
20 | 81% | 68% | NCc1cccc(C2CCN(C(=O)c3ccc(CO)c(O)c3)CC2)c1 | 0.0658 µM | 1.55 µM | remaining at 1 h, 15 µM [3]: 63%
21 | 87% | – | NCc1ccc2c(c1)C1(CCN(C(=O)c3ccc(O)c(O)c3)CC1)CO2 | 0.635 µM | 2.54 µM | remaining at 1 h, 15 µM [3]: 94%; Stability [4]: Stable
22 | 82% | 82% | NCc1ccc2c(c1)C1(CCN(C(=O)c3cccc(-c4cccc5c4COB5O)c3)CC1)CO2 | 1.5 µM | 2.89 µM | logD [16]: 1.69; inhibition (Mus musculus): inactive
23 | 53% | 52% | NCc1cccc(C2CCN(C(=O)c3ccc(O)c(O)c3)CC2)c1 | 0.452 µM | 2.31 µM | clearance [20]: 519 mL/min/kg; half-life [14]: 45.6 min; remaining at 1 h, 15 µM [3]: 43%
24 | 67% | 87% | CONC(=O)c1cc(C(=O)N2CCC3(CC2)COc2ccc(CN)cc23)ccc1O | 0.57 µM | 2.16 µM | Stability [3]: Stable
